From US10808003B2, “Amphipathic molecule based on tandem malonate and use thereof” (Industry-University Cooperation Foundation Hanyang …, priority 2017, dated 2020)
Entries after “also recorded” stand apart in the source; their conditions may differ.

Assays:
[1] = tested on: LeuT (leucine transporter); test: LeuT stability by [3H]-Leu substrate binding, scintillation proximity assay (SPA); type: biochemical, Aquifex aeolicus; conditions: TMGs or DDM at CMC+0.04 wt %, 10 days at room temperature
Experimental: An experiment of measuring LeuT protein stability for TMGs and TMMs was performed. (a) CMC+0.04 wt % or (b) CMC+0.2 wt % of each amphipathic molecule was used, and the evaluation of the LeuT protein stability was performed by taking an advantage of a characteristic of LeuT binding to a substrate through a scintillation proximity assay (SPA) using [^3H]-Leu. […]
Specifically, wild type LeuT (leucine transporter) derived from a thermophilic bacterium, Aquifex aeolicus, was purified by a previously-disclosed method (G. Deckert et al., Nature 1998, 392, 353-358). LeuT was expressed in E. coli C41 (DE3) transformed with pET16b encoding a C-terminus 8×His-tagged transporter (the expression plasmid was provided by Dr E. Gouaux, Vollum Institute, Portland, Oreg., USA). In summary, following isolation of a bacterial membrane and lysis with 1% (w/v) DDM, the protein was allowed to bind to a Ni^2+-NTA resin (Life Technologies, Denmark), and eluted in 20 mM Tris-HCl (pH 8.0), 1 mM NaCl, 199 mM KCl, 0.05% (w/v) DDM and 300 mM imidazole. Afterward, the purified LeuT (approximately 1.5 mg/ml) was diluted with the same buffer used above, from which DDM and imidazole were removed, and then supplemented with TMGs or DDM at the final concentration of CMC+0.04% (w/v). […] SPA was performed using a buffer containing 450 mM NaCl and each of the TMGs and TMMs at the predetermined concentration. The SPA reaction is performed in the presence of 20 nM [^3H]-Leucine and 1.25 mg/ml copper chelate (His-Tag) YSi beads (Perkin Elmer, Denmark). A total [^3H]-Leucine binding degree of each sample was measured using a MicroBeta liquid scintillation counter (Perkin Elmer).

[2] = target: T1, melibiose permease (MelBSt) (Salmonella typhimurium, UniProt P30878); test: MelBSt extraction and solubility at four temperatures, SDS-PAGE and western blotting; type: biochemical; conditions: 1.5 wt %, 90 minutes
T1 construct: made in house; host or cells: E. coli DW2 cells (melB and lacZY), plasmid pK95AHB/WT MelBSt/CH10
T1 sequence (P30878 whole entry): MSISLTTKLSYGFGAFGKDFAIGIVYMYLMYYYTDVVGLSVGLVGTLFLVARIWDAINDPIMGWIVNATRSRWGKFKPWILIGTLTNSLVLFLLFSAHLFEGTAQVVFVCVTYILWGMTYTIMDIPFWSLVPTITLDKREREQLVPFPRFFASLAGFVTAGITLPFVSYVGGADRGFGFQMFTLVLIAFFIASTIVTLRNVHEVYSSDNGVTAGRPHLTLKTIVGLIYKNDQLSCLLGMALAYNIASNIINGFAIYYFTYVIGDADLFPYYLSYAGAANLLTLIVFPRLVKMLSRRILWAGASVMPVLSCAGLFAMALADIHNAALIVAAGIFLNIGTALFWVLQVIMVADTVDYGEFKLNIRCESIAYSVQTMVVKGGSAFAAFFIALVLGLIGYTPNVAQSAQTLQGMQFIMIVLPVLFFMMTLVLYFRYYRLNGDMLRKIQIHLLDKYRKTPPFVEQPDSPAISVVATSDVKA
Experimental: An experiment was performed to measure structural stability of Salmonella typhimurium melibiose permease (MelBSt) protein by TMGs. The MelBSt protein was extracted from a membrane using TMGs or DDM, and then an amount of the extracted protein and its structure were analyzed by SDS-PAGE and western blotting. A concentration of the amphipathic molecule used was 1.5 wt %, and two types of performance such as protein extraction efficiency and stabilization ability of the compound were simultaneously evaluated by extracting the protein at four temperatures (0, 45, 55, and 65° C.), incubating the protein for 90 minutes at the same temperatures, and measuring an amount of the protein remaining dissolved in an aqueous solution. The amount of the protein extracted and stabilized by each amphipathic molecule was expressed as a relative value (%) with respect to a total amount of the protein contained in a membrane sample not treated with an amphipathic molecule.
Specifically, Salmonella typhimurium MelBSt (melibiose permease) having a 10-His tag at the C-terminus was expressed in E. coli DW2 cells (melB and lacZY) using plasmid pK95AHB/WT MelBSt/CH10. According to the method disclosed in the article written by A. S. Ethayathulla et al. (Nat. Commun. 2014, 5, 2009), cell growth and membrane preparation were performed. A protein assay was performed using a Micro BCA kit (Thermo Scientific, Rockford, Ill.). Using the protocol disclosed in Nat. Methods 2010, 7, 1003-1008 written by P. S. Chae et al., DDM or TMGs were evaluated for MelBSt stability. A MelBSt-containing membrane sample (the final protein concentration was 10 mg/mL) was incubated at four temperatures (0, 45, 55 and 65° C.) for 90 minutes in a 1.5% (w/v) DDM or TMG-containing solubilization buffer (20 mM sodium phosphate, pH 7.5, 200 mM NaCl, 10% glycerol, 20 mM melibiose). To remove insoluble material, ultracentrifugation was performed using a Beckman Optima™ MAX ultracentrifuge equipped with a TLA-100 rotor at 355,590 g at 4° C. for 45 minutes, and then 20 μg of each protein sample was separated using SDS-15% PAGE, followed by immunoblotting using a Penta-His-HRP antibody (Qiagen, Germantown, Md.). MelBSt was measured by an ImageQuant LAS 4000 biomolecular imager (GE Health Care Life Sciences) using a SuperSignal West Pico chemiluminescent substrate.

[3] = Critical micelle concentration by fluorescent staining with diphenylhexatriene (DPH); type: physicochemical; conditions: aqueous solution
Experimental: A method of measuring CMC is not particularly limited, and any method well known in the art, for example, a fluorescent staining method using diphenylhexatriene (DPH) may be used.
(§1) Specifically, a CMC was measured using fluorescent staining and diphenylhexatriene (DPH), and the hydrodynamic radii (Rh) of micelles formed by each agent (1.0 wt %) were measured by a DLS test. The measured results were compared with those for the conventional amphipathic molecule (detergent), DDM, and thus are shown in Table 1.

[4] = Hydrodynamic radius of micelles by dynamic light scattering (DLS); type: physicochemical; conditions: micelles formed by each agent at 1.0 wt %
Experimental: A method of measuring the radius of the micelles is not particularly limited, and any method well known in the art, for example, a DLS test may be used.
as §1

[5] = target: T2, uric acid-xanthine/H+ symporter (UapA) (Emericella nidulans, UniProt Q07307, G411V); test: Thermal/structural stability of UapA by CPM fluorescence assay; type: biochemical, Aspergillus nidulans; conditions: CMC+0.2 wt %, 125 minutes at 40° C., FIG. 10
T2 construct: GFP; made in house; host or cells: Saccharomyces cerevisiae FGY217
T2 sequence (Q07307 12-574 G411V): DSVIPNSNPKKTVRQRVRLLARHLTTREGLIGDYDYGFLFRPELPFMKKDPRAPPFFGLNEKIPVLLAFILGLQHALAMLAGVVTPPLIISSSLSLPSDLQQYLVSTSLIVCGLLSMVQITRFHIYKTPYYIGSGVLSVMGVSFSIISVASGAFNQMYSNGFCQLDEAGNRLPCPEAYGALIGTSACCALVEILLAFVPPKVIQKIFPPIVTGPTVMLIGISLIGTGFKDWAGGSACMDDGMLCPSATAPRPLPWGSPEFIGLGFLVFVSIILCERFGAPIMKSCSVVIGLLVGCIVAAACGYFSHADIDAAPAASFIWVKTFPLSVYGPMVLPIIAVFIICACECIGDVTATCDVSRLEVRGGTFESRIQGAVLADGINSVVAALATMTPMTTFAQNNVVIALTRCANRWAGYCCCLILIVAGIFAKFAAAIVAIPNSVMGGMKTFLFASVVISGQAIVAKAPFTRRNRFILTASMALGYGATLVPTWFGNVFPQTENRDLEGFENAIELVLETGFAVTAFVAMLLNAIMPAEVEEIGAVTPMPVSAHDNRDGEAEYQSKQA
Experimental: An experiment of measuring structural stability of a uric acid-xanthine/H+ symporter (UapA) separated from Aspergillus nidulans by TMG was performed. The structural stability of UapA was evaluated using a sulfhydryl-specific fluorophore and N-[4-(7-diethylamino-4-methyl-3-coumarinyl)phenyl]maleimide (CPM).
Specifically, UapAG411V1-11 (hereinafter, referred to as “UapA”) expressed as a GFP fusion protein from a Saccharomyces cerevisiae FGY217 strain, and the protein was separated using a sample buffer (20 mM Tris (pH 7.5), 150 mM NaCl, 0.03% DDM, 0.6 mM xanthine) according to a method disclosed in the article written by J. Leung et al. (Mol. Membr. Biol. 2013, 30, 32-42). The protein having a molecular weight of 100 kDa was concentrated to approximately 10 mg/mL using a cut-off filter (Millipore). The protein was diluted with a buffer containing each of the TMG-As (TMG-A11, TMG-A12, TMG-A13 and TMG-A14), TMG-Ts (TMG-T11, TMG-T12, TMG-T13 and TMG-T14), MNG-3 or DDM at a ratio of 1:150 to reach the final concentration of CMC+0.04 wt % or CMC+0.2 wt % in a Greiner 96-well plate. A CPM dye (Invitrogen) stored in DMSO (Sigma) was diluted with a staining buffer (20 mM Tris (pH 7.5), 150 mM NaCl, 0.03% DDM, 5 mM EDTA), and 3 μL of the staining buffer was added to each sample. The reaction mixture was incubated at a constant temperature for 125 minutes at 40° C. Fluorescence emission was recorded using a microplate spectrofluorometer set to each of excitation and emission wavelengths of 387 nm and 463 nm. A relative amount of folded proteins was plotted over time using GraphPad Prism.

[6] = target: T3, human β2 adrenergic receptor (β2AR) (Homo sapiens, UniProt P07550); test: β2AR stability by [3H]-dihydroalprenolol (DHA) ligand binding assay; type: biochemical; conditions: CMC+0.2 wt %; for long-term maintenance of binding between β2AR and ligand: 7-day incubation at room temperature, FIG. 14b; for initial β2AR receptor activity ([3H]-DHA binding): FIG. 14a
T3 construct: made in house; host or cells: cell membrane
T3 sequence (P07550 whole entry): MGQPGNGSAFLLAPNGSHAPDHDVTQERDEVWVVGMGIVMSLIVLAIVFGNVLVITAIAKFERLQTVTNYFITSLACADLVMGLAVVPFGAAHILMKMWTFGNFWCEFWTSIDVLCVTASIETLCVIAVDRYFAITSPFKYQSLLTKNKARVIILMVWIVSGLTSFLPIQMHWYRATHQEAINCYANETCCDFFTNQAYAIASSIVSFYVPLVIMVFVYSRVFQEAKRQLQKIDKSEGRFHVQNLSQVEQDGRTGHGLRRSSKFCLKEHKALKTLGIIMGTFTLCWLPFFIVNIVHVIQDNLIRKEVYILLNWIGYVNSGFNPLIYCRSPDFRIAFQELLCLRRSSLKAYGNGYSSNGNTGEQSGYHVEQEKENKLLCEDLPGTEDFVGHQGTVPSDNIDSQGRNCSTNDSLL
Experimental: Experiments for measuring stability of a human β2 adrenergic receptor (β2AR) and a G-protein-coupled receptor (GPCR) by TMGs were performed. A receptor was extracted from a cell membrane using 1% DDM and purified with a 0.1% amphipathic molecule. The receptor purified with the DDM was diluted with a buffer solution containing DDM or TMGs to adjust the final concentration of the compound to CMC+0.2 wt %. β2AR solubilized by each amphipathic molecule was stored for 7 days at room temperature, and the sample was incubated with 10 nM [^3H]-dihydroalprenolol (DHA) supplemented with 0.5 mg/ml BSA for 30 minutes at room temperature to evaluate a ligand-binding ability at regular intervals during the experimental period. The mixture was loaded onto a G-50 column, and a liquid running through the column was collected using 1 ml of a binding buffer (20 mM HEPES containing 0.5 mg/ml BSA and 20×CMC of each amphipathic molecule, pH 7.5, 100 mM NaCl). In addition, 15 ml of a scintillation fluid was added, and receptor-bound [^3H]-DHA was measured using a scintillation counter (Beckman). A binding degree of the [^3H]-DHA was shown by a column graph (FIG. 14). The experiment was repeated three times.

Row | Structure (SMILES) | substrate-binding ability of LeuT [1] | amount of MelBSt solubilized / extraction efficiency ([2]; 45° C.) | amount of MelBSt solubilized / extraction efficiency ([2]; 55° C.) | CMC [3] [mM] | CMC (wt %) [3] [wt %] | Rh (nm), hydrodynamic radius of micelles [4] [nm] | ability to conserve UapA transporter in a folded state [5] | long-term maintenance of binding between β2AR and ligand [6] | initial β2AR receptor activity ([3H]-DHA binding) [6]
1 | CCCCCCCCCCCCC(CCCC(CCCCCCCCCCCC)(CO[C@@H]1OC(CO)[C@@H](O)C(O)C1O)CO[C@@H]1OC(CO)[C@@H](O)C(O)C1O)(CO[C@@H]1OC(CO)[C@@H](O)C(O)C1O)CO[C@@H]1OC(CO)[C@@H](O)C(O)C1O (stereo partly drawn) [TMG-A12] | substantially higher substrate-binding ability of the transporter than DDM; also recorded: well maintained for 10 days | almost all MelBSt was successfully extracted | excellent protein extraction efficiency was able to be confirmed | ~0.010 | ~0.0012 | 3.3 ± 0.09 |  |  | 
2 | CCCCCCCCCCCCCC(CCCC(CCCCCCCCCCCCC)(CO[C@@H]1OC(CO)[C@@H](O)C(O)C1O)CO[C@@H]1OC(CO)[C@@H](O)C(O)C1O)(CO[C@@H]1OC(CO)[C@@H](O)C(O)C1O)CO[C@@H]1OC(CO)[C@@H](O)C(O)C1O (stereo partly drawn) [TMG-A13] |  |  |  | ~0.006 | ~0.0007 | 3.6 ± 0.16 | excellent effect of stabilizing transporter folding | superior to DDM in terms of long-term maintenance of binding between the receptor and the ligand | as effective as DDM
3 | CCCCCCCCCCCCCCC(CCCC(CCCCCCCCCCCCCC)(CO[C@@H]1OC(CO)[C@@H](O)C(O)C1O)CO[C@@H]1OC(CO)[C@@H](O)C(O)C1O)(CO[C@@H]1OC(CO)[C@@H](O)C(O)C1O)CO[C@@H]1OC(CO)[C@@H](O)C(O)C1O (stereo partly drawn) [TMG-A14] |  |  |  | ~0.004 | ~0.0005 | 3.8 ± 0.10 | excellent effect of stabilizing transporter folding | superior to DDM in terms of long-term maintenance of binding between the receptor and the ligand | 
4 | CCCCCCCCCCCCCOCC(CO[C@@H]1OC(CO)[C@@H](O)C(O)C1O)(CO[C@@H]1OC(CO)[C@@H](O)C(O)C1O)CSCC(COCCCCCCCCCCCCC)(CO[C@@H]1OC(CO)[C@@H](O)C(O)C1O)CO[C@@H]1OC(CO)[C@@H](O)C(O)C1O (stereo partly drawn) [TMG-T13] | a better characteristic than DDM |  |  | ~0.006 | ~0.0008 | 3.3 ± 0.08 | excellent effect of stabilizing transporter folding | superior to DDM in terms of long-term maintenance of binding between the receptor and the ligand | as effective as DDM
5 | CCCCCCCCCCCCCCOCC(CO[C@@H]1OC(CO)[C@@H](O)C(O)C1O)(CO[C@@H]1OC(CO)[C@@H](O)C(O)C1O)CSCC(COCCCCCCCCCCCCCC)(CO[C@@H]1OC(CO)[C@@H](O)C(O)C1O)CO[C@@H]1OC(CO)[C@@H](O)C(O)C1O (stereo partly drawn) [TMG-T14] | a better characteristic than DDM |  |  | ~0.004 | ~0.0005 | 3.8 ± 0.09 | excellent effect of stabilizing transporter folding | superior to DDM in terms of long-term maintenance of binding between the receptor and the ligand; also recorded: most excellent in maintenance of binding between a receptor and a ligand | 
